Measurements from patent US20110207723A1, “NOVEL FUSED AMINODIHYDROTHIAZINE DERIVATIVE” (EISAI R&D MANAGEMENT CO., LTD., priority 2008, published 2011).

What follows are compounds tested on Aβ42 production (assay: Quantification of Aβ peptide in culture of neurons from rat fetus brain (Aβ42 ELISA)). Conditions: Neuron, 72 h, rat primary neuronal culture (embryonic day 18 Wistar rat cerebral cortex), medium collected three days after addition of compound, read-out: Aβ42 production reducing effect IC50.
Type: cell-based
Method in brief: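 Primary cortical neurons from E18 Wistar rat embryos, cultured 4 days in Neurobasal/B27/2-ME, then treated 3 days with compound in Neurobasal/B27 (final DMSO 1% or less; DMSO control). Conditioned medium collected; Aβx-42 measured undiluted by sandwich ELISA kit.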
`NC1=N[C@@]2(c3cc(NC(=O)c4ccc(Cl)cn4)ccc3F)CO[C@@H](CF)C[C@H]2CS1` [Example 45, N-[3-((4aR,6R,8aS)-2-amino-6-fluoromethyl-4,4a,5,6-tetrahydro-7-oxa-3-thia-1-azanaphthalen-8a-yl)-4-fluorophenyl]-5-chloropyridine-2-carboxamide] showed an IC50 of 2 nM. `NC1=N[C@@]2(c3cc(NC(=O)c4ccc(C(F)(F)F)cn4)ccc3F)CO[C@@H](CF)C[C@H]2CS1` [Example 46, N-[3-((4aR,6R,8aS)-2-amino-6-fluoromethyl-4,4a,5,6-tetrahydro-7-oxa-3-thia-1-azanaphthalen-8a-yl)-4-fluorophenyl]-5-trifluoromethylpyridine-2-carboxamide] showed an IC50 of 1 nM. In the case of `NC1=N[C@@]2(c3cc(NC(=O)c4cnc(OCF)cn4)ccc3F)CO[C@@H](CF)C[C@H]2CS1` [Example 47, N-[3-((4aR,6R,8aS)-2-amino-6-fluoromethyl-4,4a,5,6-tetrahydro-7-oxa-3-thia-1-azanaphthalen-8a-yl)-4-fluorophenyl]-5-fluoromethoxypyrazine-2-carboxamide], the IC50 is reported as 4 nM. Work on `NC1=N[C@@]2(c3cc(NC(=O)c4cnc(C(F)F)cn4)ccc3F)CO[C@@H](CF)C[C@H]2CS1` [Example 48, N-[3-((4aR,6R,8aS)-2-amino-6-fluoromethyl-4,4a,5,6-tetrahydro-7-oxa-3-thia-1-azanaphthalen-8a-yl)-4-fluorophenyl]-5-difluoromethylpyrazine-2-carboxamide] yielded an IC50 of 2 nM. In the case of `NC1=N[C@@]2(c3cc(-c4cccnc4F)ccc3F)CO[C@@H](CF)C[C@H]2CS1` [Example 60, (4aR,6R,8aS)-8a-[2-fluoro-5-(2-fluoropyridin-3-yl)phenyl]-6-fluoromethyl-4,4a,5,6,8,8a-hexahydro-7-oxa-3-thia-1-azanaphthalen-2-ylamine], the IC50 is reported as 32 nM. In the case of `NC1=N[C@@]2(c3cc(-c4cccnc4F)ccc3F)CO[C@@H](COCc3ccccc3)C[C@H]2CS1` [Example 66, (4aR,6R,8aS)-8a-[2-fluoro-5-(2-fluoropyridin-3-yl)phenyl]-6-benzyloxymethyl-4,4a,5,6,8,8a-hexahydro-7-oxa-3-thia-1-azanaphthalen-2-ylamine], the IC50 is reported as 263 nM.
